In the NIST ThermoML archive (doi:10.1016/j.jct.2008.09.020):
Values joined by “and” are separate entries in the source; they are usually repeats but may differ in a detail not shown here. Equal entries are not always repeated. Numbers after ± are expanded uncertainties.

Details: 313.15 K; Liquid; Ebulliometric method (Recirculating still)

SMILES | vapor or sublimation pressure
CCOC(C)(C)C [2-ethoxy-2-methylpropane] | 31.63 ± 0.17 kPa and 31.64 ± 0.17 kPa
C=CCCCC [hex-1-ene] | 44.96 ± 0.28 kPa and 44.94 ± 0.28 kPa
Cc1ccccc1 [toluene] | 7.869 ± 0.07 kPa and 7.872 ± 0.07 kPa
